Reference: patent US20240390295A1, “METHODS FOR TREATING DEPRESSION” (JANSSEN PHARMACEUTICA NV, priority 2020, published 2024)
Several values for one entry are separate records, joined by “and”; a condition that tells them apart may be missing. Equal entries are not always repeated.

System: adult patients (aged 18-64 years) with TRD
Assay: Clinician-reported adverse events: incidence and recurrence by Week 1/Week 4 frequency, pooled studies 1 and 2 (ESK + OAD)
Format: in vivo, human
Description: Data were pooled from adult patients (aged 18-64 years) with TRD. Patients had recurrent or single-episode (>2 years) MDD (DSM-5), a Clinician-Rated Inventory of Depressive Symptomatology score of >3 and a total Montgomery-Åsberg Depression Rating Scale (MADRS) score of >2. At screening, depressive symptoms had been non-responsive to adequate trials of ≥1 and ≤5 commercially available OAD in the current depressive episode. Non response was further confirmed by a prospective trial of a different OAD lasting ≥4 weeks and during the screening phase.
In brief, study 1 was a double-blind, placebo-controlled relapse prevention trial comparing the efficacy of ESK versus placebo nasal spray, both in conjunction with a Food and Drug Administration (FDA)-approved OAD, in delaying relapse of depressive symptoms in patients with TRD who were either in stable remission or stable response after four months' treatment with ESK in conjunction with a FDA-approved OAD. Study 2 was an open-label, multicenter study that assessed the long-term safety and efficacy of ESK in conjunction with an FDA-approved OAD in patients with TRD.
The analysis was limited to the two doses of ESK (56 mg and 84 mg) approved for use by the FDA for patients with TRD. Patients received ESK (56 or 84 mg) in conjunction with an OAD twice weekly during the induction phase (Weeks 1-4); once weekly during Weeks 5-8 of the optimization phase: either once weekly or every other week during the remainder of the 12-week optimization phase and the maintenance phase (individualized according to the severity of depressive symptoms [MADRS total score≤/>12] and tolerability).
Patients were monitored for >90 minutes after ESK administration at each treatment session, after which time they could leave the clinical site at the clinician's discretion. AEs were monitored and reported, and safety assessments, including clinical laboratory tests and physical examinations, were conducted throughout the study. Clinician-reported AEs were categorized as mild, moderate, or severe based on clinical judgement (Table 1).
This analysis included any treatment sessions in which patients received ESK (either open-label or blinded). The occurrence and severity of AEs were assessed within the following timeframes: Month 1 (Week 1 and Weeks 2-4), Month 2 (Weeks 5-8), Months 3-6 and Months 6-12. Severity of clinician-reported AEs were scored as 0 (no AE), 1 (mild), 2 (moderate), and 3 (severe). To examine AEs in individual patients over time, only patients who received at least one ESK dose in the following period were included in the analyses of each respective period. Thus, patient data were retained in (i) Week 1 if the patient received ≥1 ESK dose in Weeks 2-4, (ii) Weeks 2-4 if the patient received ≥1 ESK dose in Weeks 5-8, (iii) Weeks 5-8 if the patient received ≥1 ESK dose in Months 3-6, and (iv) Months 3-6 if the patient received ≥1 ESK dose in Months 6-12.
The five most commonly reported treatment-emergent events occurring with ESK plus OAD therapy (dissociation, dizziness, nausea, sedation, and vertigo) were evaluated, each of which has an incidence ≥5% and at least a 2-fold greater incidence than with placebo plus an OAD. 14 Increases in BP were also examined.
Week 1 and Week 4 were set a priori as index weeks because they are the beginning and end of the induction period. Frequencies and maximum-reported severities of AEs reported during these index weeks served as stratifying variables by which to examine recurrence and severities of AE recurrences in future timeframes.

[1] = Weeks 2-4, overall rate for timeframe
[2] = Weeks 5-8, overall rate for timeframe
[3] = human, in vivo, other: nasal spray, 1 week

For `CN[C@]1(c2ccccc2Cl)CCCCC1=O` [esketamine, (S)-2-(2-chlorophenyl)-2-(methylamino)cyclohexanone], the Clinician-reported dissociation (Weeks 2-4, AE once in Week 1) was 48.2%, the “Clinician-reported increased blood pressure” value (Weeks 2-4, AE once in Week 1) was 56.5% and the Clinician-reported sedation (Weeks 2-4, AE once in Week 1) was 36.8%. For the same compound, the Dizziness (Weeks 2-4, AE once in Week 1) was 51.9%, the Nausea (Weeks 2-4, AE once in Week 1) was 28.6% and the Vertigo (Weeks 2-4, AE once in Week 1) was 67.4%. For the same compound, the Clinician-reported dissociation (Weeks 2-4, AE twice in Week 1) was 86.5%, the “Clinician-reported increased blood pressure” value (Weeks 2-4, AE twice in Week 1) was 77.8% and the Clinician-reported sedation (Weeks 2-4, AE twice in Week 1) was 70.6%. For the same compound, the Dizziness (Weeks 2-4, AE twice in Week 1) was 86.4%, the Nausea (Weeks 2-4, AE twice in Week 1) was 61.9% and the Vertigo (Weeks 2-4, AE twice in Week 1) was 90.3%. The Clinician-reported dissociation (Weeks 2-4, No AE in Week 1) was 5.6% and 5.7%, the “Clinician-reported increased blood pressure” value (Weeks 2-4, No AE in Week 1) was 2.4% and the Clinician-reported sedation (Weeks 2-4, No AE in Week 1) was 2.1%. The Dizziness (Weeks 2-4, No AE in Week 1) was 6.3%, the Nausea (Weeks 2-4, No AE in Week 1) was 5.3% and the Vertigo (Weeks 2-4, No AE in Week 1) was 5.5%. The Anxiety (Weeks 2-4, None in Week 1) was 1.3%, the “Feeling Drunk” value (Weeks 2-4, None in Week 1) was 0.4% and the Hypoesthesia (Weeks 2-4, None in Week 1) was 3.7%. It also gave a Lethargy (Weeks 2-4, None in Week 1) of 1.0%, a Vomiting (Weeks 2-4, None in Week 1) of 2.4% and an Anxiety (Weeks 2-4, Once in Week 1) of 11.8%. The “Feeling Drunk” value (Weeks 2-4, Once in Week 1) was 30.8%, the Hypoesthesia (Weeks 2-4, Once in Week 1) was 54.3% and the Lethargy (Weeks 2-4, Once in Week 1) was 71.4%. The Vomiting (Weeks 2-4, Once in Week 1) was 31.0%, the Anxiety (Weeks 2-4, Overall) was 1.7% and the “Feeling Drunk” value (Weeks 2-4, Overall) was 1.9%. It also gave a Hypoesthesia (Weeks 2-4, Overall) of 7.2%, a Lethargy (Weeks 2-4, Overall) of 1.5% and a Vomiting (Weeks 2-4, Overall) of 3.3%. For the same compound, the Anxiety (Weeks 2-4, Twice in Week 1) was 100%, the “Feeling Drunk” value (Weeks 2-4, Twice in Week 1) was 90.9% and the Hypoesthesia (Weeks 2-4, Twice in Week 1) was 76.2%. It also gave a Lethargy (Weeks 2-4, Twice in Week 1) of 0%, a Vomiting (Weeks 2-4, Twice in Week 1) of 0% and a Clinician-reported dissociation [1] of 16.1%. For the same compound, the “Clinician-reported increased blood pressure” value [1] was 5.2%, the Clinician-reported sedation [1] was 4.1% and the Dizziness [1] was 19.2%. For the same compound, the Nausea [1] was 9.4%, the Vertigo [1] was 15.0% and the Clinician-reported dissociation (Weeks 5-8, AE once in Week 1) was 29.8%. The “Clinician-reported increased blood pressure” value (Weeks 5-8, AE once in Week 1) was 40.9%, the Clinician-reported sedation (Weeks 5-8, AE once in Week 1) was 22.2% and the Dizziness (Weeks 5-8, AE once in Week 1) was 30.8%. The Nausea (Weeks 5-8, AE once in Week 1) was 16.1%, the Vertigo (Weeks 5-8, AE once in Week 1) was 45.2% and the Clinician-reported dissociation (Weeks 5-8, AE twice in Week 1) was 60.0%. The “Clinician-reported increased blood pressure” value (Weeks 5-8, AE twice in Week 1) was 55.6%, the Clinician-reported sedation (Weeks 5-8, AE twice in Week 1) was 52.9% and the Dizziness (Weeks 5-8, AE twice in Week 1) was 62.5%. The Nausea (Weeks 5-8, AE twice in Week 1) was 30.0%, the Vertigo (Weeks 5-8, AE twice in Week 1) was 67.6% and the Clinician-reported dissociation (Weeks 5-8, No AE in Week 1) was 6.1%. The “Clinician-reported increased blood pressure” value (Weeks 5-8, No AE in Week 1) was 1.9%, the Clinician-reported sedation (Weeks 5-8, No AE in Week 1) was 1.2% and the Dizziness (Weeks 5-8, No AE in Week 1) was 3.7%. For the same compound, the Nausea (Weeks 5-8, No AE in Week 1) was 1.7%, the Vertigo (Weeks 5-8, No AE in Week 1) was 3.0% and the Anxiety (Weeks 5-8, None in Week 1) was 0.8%. For the same compound, the “Feeling Drunk” value (Weeks 5-8, None in Week 1) was 0.1%, the Hypoesthesia (Weeks 5-8, None in Week 1) was 1.6% and the Lethargy (Weeks 5-8, None in Week 1) was 1.1%. For the same compound, the Vomiting (Weeks 5-8, None in Week 1) was 1.5%, the Anxiety (Weeks 5-8, Once in Week 1) was 5.9% and the “Feeling Drunk” value (Weeks 5-8, Once in Week 1) was 16.7%. For the same compound, the Hypoesthesia (Weeks 5-8, Once in Week 1) was 20.7%, the Lethargy (Weeks 5-8, Once in Week 1) was 40.0% and the Vomiting (Weeks 5-8, Once in Week 1) was 21.1%. The Anxiety (Weeks 5-8, Overall) was 1.0%, the “Feeling Drunk” value (Weeks 5-8, Overall) was 1.6% and the Hypoesthesia (Weeks 5-8, Overall) was 3.4%. It also gave a Lethargy (Weeks 5-8, Overall) of 1.2%, a Vomiting (Weeks 5-8, Overall) of 1.8% and an Anxiety (Weeks 5-8, Twice in Week 1) of 50.0%. For the same compound, the “Feeling Drunk” value (Weeks 5-8, Twice in Week 1) was 90.9%, the Hypoesthesia (Weeks 5-8, Twice in Week 1) was 58.3% and the Lethargy (Weeks 5-8, Twice in Week 1) was 0%. For the same compound, the Vomiting (Weeks 5-8, Twice in Week 1) was 0%, the Clinician-reported dissociation [2] was 12.6% and the “Clinician-reported increased blood pressure” value [2] was 3.9%. For the same compound, the Clinician-reported sedation [2] was 2.6%, the Dizziness [2] was 12.5% and the Nausea [2] was 4.0%. For the same compound, the Vertigo [2] was 9.9%, the “increased blood pressure reported” value (all subsequent postdose monitoring periods, no increased blood pressure in week 1) was under 4% and the “dissociation as an AE into months 3-6” value (dissociation twice in week 1) was over 50%. The “dizziness at 3-6 months” value (dizziness not reported in week 1 (exception)) was 11.6%, the “patients who did not have increased blood pressure during week 1” value [3] was 95.7% and the “patients who did not report dissociation during week 1” value [3] was 83.2%. The “patients who did not report nausea during week 1” value [3] was 86.0%, the “impact of dose (56 or 84 mg modal dose) on AE recurrence” value (most pronounced with dissociation and dizziness) was “small dose effect” and the dissociation occurred (remainder of induction period, no dissociation in week 1) was under 10%. For the same compound, the nausea reported (subsequent postdose monitoring periods, no nausea in week 1) was under 6%.
